Assay results reported in US11814402B2, “Binuclear palladacycles and their use in the treatment of cancer” (Stellenbosch University, priority 2019, dated 2023).

Columns and labels:
[1] = Turbidimetric assay - solubility in 10% DMSO:PBS; assay type: physicochemical; conditions: for aqueous solubility (in words): aqueous media
Procedure: A 0.01 M pH 7.4 Phosphate Buffered Saline (PBS) solution was prepared by dissolving one PBS tablet (Sigma-Aldrich) in 200 mL distilled water at 25° C. to yield a buffered solution containing 0.01 M phosphate buffer, 0.003 M KCl and 0.14 M NaCl. The solution equilibrated at 25° C. for one hour upon which the pH was confirmed.
A preparation plate (96-well flat bottomed) was prepared by serially diluting the compound to achieve the desired concentrations (5.0 μM to 200 μM). The test plate was prepared by pipetting […] into wells 7-12. Each compound was tested in triplicate thus a single plate could be used to evaluate two compounds. […] of each compound concentration was pipetted from the preparation plate into the test plate to bring the total volume up to 200 μL and to ensure that a 10% (v/v) DMSO/PBS solution is achieved. Test plates were prepared in duplicate and one plate was incubated at room temperature (25° C.) and the second at physiological temperature (37° C.). Both test plates were incubated for 2 hours upon which the UV-Vis absorbance readings were measured at 620 nm. The corrected absorbance readings were obtained by subtracting the blank readings from each concentration absorbance.

[2] = system: MCF 7 breast cancer cell line tumour; experiment: In vivo anti-tumour activity, MCF 7 (chick embryo model)
Procedure: (§1) The activity of BTC2 was evaluated in two breast cancer cell lines (MCF 7 and MDA-MB-231). The latter is an aggressive, metastatic cell line in which metastasis is often difficult to prevent or control.
(§2) Metastasis is the process of the spreading of the cancer from its site of origin to other parts of the body. This was evaluated using the same chick embryo model as mentioned above, and again compared to the known drug, paclitaxel.

[3] = system: MDA-MB 231 breast cancer cell line metastasis; experiment: Metastasis reduction, MDA-MB 231 (chick embryo model); assay type: in vivo
Procedure: The ability of BTC2 to prevent metastasis was also evaluated.
as §2
When tested in the aggressive breast cancer cell line, MDA-MB 231, BTC2 was able to induce a 46% reduction in metastasis compared to 64% reduction for paclitaxel.

[4] = system: human breast adenocarcinoma MCF-7 (estrogen receptor positive) cells; experiment: Cytotoxicity (MTT) assay, MCF-7; assay type: cell-based; conditions: 48 hours treatment
Procedure: (§3) These included cell viability tests using a MTT assay, and in some cases Western blots to test for DNA damage using γ-H2AX and PARP cleavage to determine whether or not apoptosis takes place.
The complex solutions were prepared by dissolution in DMSO to obtain 5 mM stock solutions. Solutions were stored at room temperature for no more than a week. […] The 3-(4,5-dimethylthiazol-2-yl)-2,5-diphenyltetrazolium bromide (MTT) assay was then used, as described by the manufacturer's instructions: 10 μL of MTT solution was added to each well. Well plates were then incubated at 37° C. for 4 h. This was followed by addition of 100 μL solubilisation buffer (10% SDS in 0.01 M HCl) and incubation overnight at 37° C. Absorbance at 585 nm was then determined for each well and the mean cell viability was calculated as a percentage of the mean vehicle control. The experiments were performed in triplicate and the data were used to determine the half maximal inhibitory concentration values (IC50).

[5] = system: human breast adenocarcinoma MDA-MB-231 (estrogen receptor negative) cells; experiment: Cytotoxicity (MTT) assay, MDA-MB-231; assay type: cell-based; conditions: 48 hours treatment
Procedure: as §3
The complex solutions were prepared by dissolution in DMSO to obtain 5 mM stock solutions. Solutions were stored at room temperature for no more than a week. […] After 48 hours, the cells were treated with various concentrations of complex (0-1 μM) or the vehicle for 48 hours. The 3-(4,5-dimethylthiazol-2-yl)-2,5-diphenyltetrazolium bromide (MTT) assay was then used, as described by the manufacturer's instructions: 10 μL of MTT solution was added to each well. Well plates were then incubated at 37° C. for 4 h. This was followed by addition of 100 μL solubilisation buffer (10% SDS in 0.01 M HCl) and incubation overnight at 37° C. Absorbance at 585 nm was then determined for each well and the mean cell viability was calculated as a percentage of the mean vehicle control. The experiments were performed in triplicate and the data were used to determine the half maximal inhibitory concentration values (IC50).

[6] = system: oestrogen receptor negative MDA-MB-231 breast cancer cells; conditions: prior report on AJ5; cited from earlier work
[7] = system: oestrogen receptor positive MCF7 breast cancer cells; conditions: prior report on AJ5; read-out: IC50 MCF-7; cited from earlier work
ME1402 melanoma cells = conditions: Biochem. Pharmacol. 2013, 86, 1650; read-out: IC50 proliferation ME1402 melanoma cells; cited from earlier work
WM1158 melanoma cells = conditions: Biochem. Pharmacol. 2013, 86, 1650; read-out: IC50 proliferation WM1158 melanoma cells; cited from earlier work
[8] = Solubility in DMSO and DMSO/water (characterisation data); conditions: for Solubility: DMSO: in DMSO; for behaviour on addition of water / aqueous medium: test medium
γ-H2AX in MCF7 cells = experiment: Western blot, γ-H2AX (DNA damage); assay type: cell-based, human; conditions: treatment for 24 and 48 hours
Procedure: The complex solutions were prepared by dissolution in DMSO to obtain 0.1 and 0.2 μM stock solutions. Solutions were stored at room temperature for no more than a week. Human MCF7 breast adenocarcinoma cells in RPMI 1640 medium were plated in 6 cm petri dishes at 6×10^5 cells per plate. The cells were treated with the complex solutions for 24 or 48 hours. Cells were then lysed using whole cell lysis buffer (0.5 M tris-HCl, pH 6.8, 2% SDS, 10% glycerol, 1% β-mercaptoethanol and 0.02% bromophenol blue). Samples were boiled for 10 minutes. The proteins were resolved using SDS/PAGE (8-15% gels) as required. They were then transferred to Hybond ECL membranes which were then incubated with primary antibodies against PARP ½ (sc-7150), phospho-H2AX (#2577) and p38 (M000). Thereafter, the membranes were incubated with HRP-conjugated secondary antibodies (1:5000). The antibody-reactive proteins were visualised with a chemiluminescence reaction (ECL) detection system.
The most important proteins which are employed as markers for potential anti-cancer drugs are γ-H2AX, which, if present, is an indication of DNA damage and PARP, which if cleaved, is an indication that apoptosis has been induced. In order to allow for relative quantification of the proteins being detected, a loading control, P38, was used to ensure that loading discrepancies are not interpreted as drug-induced changes.

[9] = system: MDA-MB-231 breast cancer cell line tumour; experiment: In vivo anti-tumour activity, MDA-MB-231 (chick embryo model); conditions: MDA-MB-231, about half the concentration of paclitaxel
Procedure: as §1
Again, BTC2 was used at about half the concentration of the control, paclitaxel.
as §2

[10] = turbidimetric assay, 10% DMSO:PBS pH 7.4, 37° C., 2 hours incubation

CC(C)c1cccc(C(C)C)c1[N+]1=Cc2ccc(OCCO)c[c]2[Pd-2]1([Cl])[P+](CC[P+](c1ccccc1)(c1ccccc1)[Pd-2]1([Cl])[c]2cc(OCCO)ccc2C=[N+]1c1c(C(C)C)cccc1C(C)C)(c1ccccc1)c1ccccc1 (centres unmarked) [BTC5, [(PdCl{4-(2-hydroxyethoxy})CH═N{2,6-^iPr2-C6H3})2(μ-Ph2P(CH2)2PPh2)]]
solubility at 2 h ([1]; 10% DMSO:phosphate buffered saline, aqueous with cosolvent or surfactant or cyclodextrin, kinetic from dmso stock, turbidimetric assay, 10% DMSO:PBS pH 7.4, 37° C., 2 hours incubation): 13.3 to 26.6 µg/mL

CC(=O)O[C@H]1C(=O)[C@@]2(C)[C@H]([C@H](OC(=O)c3ccccc3)[C@]3(O)C[C@H](OC(=O)[C@H](O)[C@@H](NC(=O)c4ccccc4)c4ccccc4)C(C)=C1C3(C)C)[C@]1(OC(C)=O)CO[C@@H]1C[C@@H]2O [paclitaxel]
tumour regression ([2]; MCF 7, concentration 50 μM): 26% | reduction in metastasis ([3]; MDA-MB 231, 50 μM): 64%

[(PdCl{4-[2-(2-hydroxyethoxy)ethoxy]}CH═N{2,6-^iPr2-C6H3})2(μ-Ph2P(CH2)3PPh2)] [BTC3]
IC50 [4]: 2500 ± 260 nM | IC50 [5]: 2300 ± 190 nM

CC(C)c1cccc(C(C)C)c1[N+]1=Cc2cccc[c]2[Pd-2]1([Cl])[P+](C[P+](c1ccccc1)(c1ccccc1)[Pd-2]1([Cl])[c]2ccccc2C=[N+]1c1c(C(C)C)cccc1C(C)C)(c1ccccc1)c1ccccc1 (centres unmarked) [BC1]
IC50 [4]: 2700 ± 210 nM | Solubility in 10% DMSO:PBS at 37° C. [1, 10]: 10.21 to 20.41 µg/mL | IC50 [5]: 2200 ± 190 nM

CC(C)c1cccc(C(C)C)c1[N+]1=Cc2cccc[c]2[Pd-2]1([Cl])[P+](CC[P+](c1ccccc1)(c1ccccc1)[Pd-2]1([Cl])[c]2ccccc2C=[N+]1c1c(C(C)C)cccc1C(C)C)(c1ccccc1)c1ccccc1 (centres unmarked) [AJ5]
IC50 [6]: 193 nM | IC50 [4]: 180 ± 48 nM | aqueous solubility (in words) [1]: poor solubility | Solubility in 10% DMSO:PBS at 37° C. [1, 10]: 5.98 to 11.97 µg/mL | IC50 [5]: 190 ± 15 nM | IC50 [7]: 175 nM | IC50 (ME1402 melanoma cells): 190 nM | IC50 (WM1158 melanoma cells): 200 nM

CC(C)c1cccc(C(C)C)c1[N+]1=Cc2cccc[c]2[Pd-2]1([Cl])[P+](CCC[P+](c1ccccc1)(c1ccccc1)[Pd-2]1([Cl])[c]2ccccc2C=[N+]1c1c(C(C)C)cccc1C(C)C)(c1ccccc1)c1ccccc1 (centres unmarked) [BC3]
IC50 [4]: 5800 ± 280 nM | Solubility in 10% DMSO:PBS at 37° C. [1, 10]: 6.12 to 12.25 µg/mL | IC50 [5]: 5000 ± 75 nM

CC(C)c1cccc(C(C)C)c1[N+]1=Cc2ccc(OCCOCCO)c[c]2[Pd-2]1([Cl])[P+](c1ccccc1)(c1ccccc1)[c-]1cccc1.CC(C)c1cccc(C(C)C)c1[N+]1=Cc2ccc(OCCOCCO)c[c]2[Pd-2]1([Cl])[P+](c1ccccc1)(c1ccccc1)[c-]1cccc1.[Fe+2] (centres unmarked) [BTC4, [(PdCl{4-[2-(2-hydroxyethoxy)ethoxy]}CH═N{2,6-^iPr2-C6H3})2(μ-Ph2P(C5H4)Fe(C5H4)PPh2]]
Solubility: % DMSO in water [8]: 98 % DMSO in water | Solubility: DMSO [8]: 53.7 mg/mL | behaviour on addition of water / aqueous medium [8]: completely intolerant of water | IC50 MCF-7 [4]: Inactive | aqueous solubility (in words) [1]: highly insoluble | IC50 MDA-MB-231 [5]: Inactive

[(PdCl{4-[2-(2-hydroxyethoxy)ethoxy]}CH═N{2,6-^iPr2-C6H3})2(μ-Ph2P(CH2)2PPh2)] [BTC2]
Solubility: % DMSO in water [8]: 76 % DMSO in water | Solubility: DMSO [8]: 32.6 mg/mL | γ-H2AX (Western blot) (γ-H2AX in MCF7 cells): significant amount of γ-H2AX | tumour reduction (in words) [9]: able to induce tumour reduction | tumour regression ([2]; MCF 7, concentration 24.5 μM): 21% | IC50 [4]: 490 ± 20 nM | reduction in metastasis ([3]; MDA-MB 231, 24.4 μM): 46% | Solubility in 10% DMSO:PBS at 37° C. [1, 10]: 28.38 to 56.77 µg/mL | IC50 [5]: 580 ± 12 nM

CC(C)c1cccc(C(C)C)c1[N+]1=Cc2cccc[c]2[Pd-2]1([Cl])[P+](c1ccccc1)(c1ccccc1)[c-]1cccc1.CC(C)c1cccc(C(C)C)c1[N+]1=Cc2cccc[c]2[Pd-2]1([Cl])[P+](c1ccccc1)(c1ccccc1)[c-]1cccc1.[Fe+2] (centres unmarked) [BC4]
behaviour on addition of water / aqueous medium [8]: completely intolerant of water | IC50 MCF-7 [4]: Inactive | Solubility in 10% DMSO:PBS at 37° C. [1, 10]: 13.65 to 27.30 µg/mL | IC50 MDA-MB-231 [5]: Inactive
